In patent publication US9777309B2, “High throughput assay for monitoring AMP production and aminoacyl-tRNA synthetase activity” (Board of Supervisors of Louisiana State University and …, priority 2014, dated 2017):

Assays:
[1] = biological target: G. stearothermophilus tyrosyl-tRNA synthetase (Geobacillus stearothermophilus, UniProt P00952); experiment: Tyrosyl-tRNA synthetase assay with tRNA recycling (AMP release coupled to NADH); settings: for kcat: aminoacylation of tRNA^Tyr by the named tyrosine isomer, 10 mM MgATP
Experimental: The pH of all stock solutions was adjusted to 7.0 prior to use. All kinetic assays were performed in 96 well microtiter plates at 25° C. using either 100 or 200 μl of assay mix per well. Under these conditions, the path lengths are 0.28 and 0.56 cm, respectively. The reaction rate for formation of the L-Tyr-tRNA^TYr product was determined by monitoring the increase in absorbance at 340 nm associated with the conversion of NAD^+ to NADH using a BioTek Synergy 4 plate reader (ε340=6220 M^−1 cm^−1).
Initial rates for each substrate concentration were determined from a linear fit of the data (A340 vs. time). Km and Vmax values were determined by fitting a plot of the initial rate vs. substrate concentration to the Michaelis-Menten equation, the same equations (1) and (2) above:
[formula] where vo is the initial rate of the reaction and [S] is the substrate concentration. kcat values were calculated from the equation: Vmax=kcat[E]

IMP dehydrogenase = IMP dehydrogenase (Saccharomyces cerevisiae, UniProt P50095); type: biochemical
IMP dehydrogenase, sequence (P50095 whole entry): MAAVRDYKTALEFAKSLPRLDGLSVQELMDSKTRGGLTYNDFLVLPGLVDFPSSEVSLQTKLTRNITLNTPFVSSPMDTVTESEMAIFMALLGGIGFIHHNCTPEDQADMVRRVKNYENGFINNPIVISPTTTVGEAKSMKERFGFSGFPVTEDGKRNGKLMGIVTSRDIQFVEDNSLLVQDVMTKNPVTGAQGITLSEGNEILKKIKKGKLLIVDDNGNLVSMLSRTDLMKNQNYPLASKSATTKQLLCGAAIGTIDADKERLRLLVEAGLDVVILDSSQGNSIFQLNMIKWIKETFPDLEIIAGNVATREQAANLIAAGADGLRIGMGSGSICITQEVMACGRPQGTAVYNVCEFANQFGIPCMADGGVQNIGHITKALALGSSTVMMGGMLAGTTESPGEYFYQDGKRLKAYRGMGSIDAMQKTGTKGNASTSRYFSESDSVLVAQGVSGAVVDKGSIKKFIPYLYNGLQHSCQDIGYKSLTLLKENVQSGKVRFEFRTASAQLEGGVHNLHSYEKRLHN

G. stearothermophilus tyrosyl-tRNA synthetase, sequence (P00952 whole entry): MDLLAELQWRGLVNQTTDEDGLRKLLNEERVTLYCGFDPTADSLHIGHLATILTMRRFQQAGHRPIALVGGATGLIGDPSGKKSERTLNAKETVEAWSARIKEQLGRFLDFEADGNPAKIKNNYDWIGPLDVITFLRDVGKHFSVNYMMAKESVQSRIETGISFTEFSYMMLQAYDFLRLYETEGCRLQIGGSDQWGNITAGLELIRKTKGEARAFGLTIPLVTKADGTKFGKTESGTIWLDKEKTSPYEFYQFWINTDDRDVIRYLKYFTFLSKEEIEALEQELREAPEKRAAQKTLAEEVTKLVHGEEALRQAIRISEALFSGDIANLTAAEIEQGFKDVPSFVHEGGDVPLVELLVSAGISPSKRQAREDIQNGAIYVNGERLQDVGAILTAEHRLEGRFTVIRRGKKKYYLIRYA

SMILES | kcat [1] | Km^D-Tyr lower than Kd^D-Tyr determined by single turnover kinetics ([1]; single turnover assay was in the absence of tRNA^Tyr) | Km (IMP dehydrogenase; 50 mM TRIS pH 7.2, 25° C., other substrate at 5 mM, standard error in parenthesis) | affinity higher than for the C. albicans IMP dehydrogenase homolog (IMP dehydrogenase; S. cerevisiae vs Candida albicans enzyme)
N[C@H](Cc1ccc(O)cc1)C(=O)O [D-Tyrosine, D-tyrosine] | 0.32 (±0.08) s^−1 | 8 fold | – | –
N[C@@H](Cc1ccc(O)cc1)C(=O)O [L-Tyrosine, L-tyrosine] | 2.8 (±0.6) s^−1 | – | – | –
NC(=O)c1ccc[n+]([C@@H]2O[C@H](COP(=O)([O-])OP(=O)(O)OC[C@H]3O[C@@H](n4cnc5c(N)ncnc54)[C@H](O)[C@@H]3O)[C@@H](O)[C@H]2O)c1 [NAD^+] | – | – | 800 µM | 4 fold
